Structures are written as SMILES. ≈ marks a conversion by molar mass, not a printed value.

These results are taken from DBAASP.

Some test systems named below: Vibrio litoralis H1; Vibrio scophthalmi ZS1; Candida glabrata; Candida tropicalis; Acinetobacter baumannii; Staphylococcus aureus; Candida albicans; Pseudomonas aeruginosa; Klebsiella pneumoniae; Vibrio fluvialis; Vibrio parahaemolyticus; Streptococcus pyogenes; Aeromonas hydrophila; Vibrio alginolyticus; Escherichia coli.
Test in all cases: ≥ marks a high value that may be exact or a test limit, other limits are often not marked, values filed in µg/mL are converted to µM
Assay [1] deals with Candida albicans ATCC 64550.
Assay [2] concerns Vibrio vulnificus 1H00066.
Assay [3] has as its system Vibrio ichthyoenteri 1A00057.
In assay [4] the test system is Staphylococcus aureus 1D00101.
Assay [5] deals with Micrococcus luteus 1D00051.
The test system of assay [6] is Staphylococcus aureus ATCC 25923.
The test system of assay [7] is Pseudomonas aeruginosa ATCC 10662.
For assay [8], the system named is Enterobacter cloacae B2366-12.
The subject of assay [9] is Pseudomonas aeruginosa PAO1.
The test system of assay [10] is Enterococcus faecium ATCC 51559.
The subject of assay [11] is Acinetobacter baumannii B2367-12.
Assay [12] concerns Staphylococcus aureus USA 300.
Assay [13] has as its system Klebsiella pneumoniae ATCC 13883.
Assay [14] has as its system Candida albicans ATCC 90028.
The subject of assay [15] is Pseudomonas aeruginosa ATCC 27853.
For assay [16], the system named is Klebsiella pneumoniae ATCC BAA-2146.
The test system of assay [17] is Staphylococcus aureus ATCC 43300.
Assay [18] relates to Bacillus subtilis ATCC 6051.
For assay [19], the system named is Escherichia coli ATCC 25922.
Assay [20] concerns Cryptococcus neoformans ATCC 208821.
Assay [21] has as its system Acinetobacter baumannii ATCC 19606.
For assay [22], the system named is Klebsiella pneumoniae ATCC 700603.
The test system of assay [23] is Streptococcus gordonii ATCC 10558.
Assay [24] has as its system Streptococcus mutans UA159.
The subject of assay [25] is Streptococcus mutans GS-5.
The test system of assay [26] is Streptococcus sanguinis ATCC 49295.

As to `CC(=O)N[C@@H](C)C(=O)N[C@@H](C)C(=O)N[C@@H](C)C(=O)N[C@@H](C)C(=O)N[C@@H](C)C(=O)N[C@@H](C)C(=O)N[C@@H](C)C(=O)N[C@@H](C)C(=O)N[C@@H](C)C(=O)N[C@@H](CCCCN)C(N)=O` [AAAAAAAAAK], in [1], the MIC was not below 100 µM.

For `CSCC[C@H](NC(=O)[C@H](CCCN=C(N)N)NC(=O)[C@H](Cc1cnc[nH]1)NC(=O)CNC(=O)[C@H](CCCCN)NC(=O)CNC(=O)[C@H](CCC(N)=O)NC(=O)[C@H](CCCN=C(N)N)NC(=O)[C@H](CCCCN)NC(=O)[C@H](Cc1ccc(O)cc1)NC(=O)[C@H](CCCCN)NC(=O)[C@H](CCCCN)NC(=O)CNC(=O)CNC(=O)[C@H](CCCCN)NC(=O)[C@@H](NC(=O)[C@@H](N)CS)C(C)C)C(=O)N[C@@H](CCCN=C(N)N)C(=O)N[C@@H](CCCN=C(N)N)C(=O)N[C@@H](Cc1ccc(O)cc1)C(=O)N[C@@H](CCCN=C(N)N)C(=O)N[C@@H](CC(N)=O)C(=O)N[C@@H](CC(N)=O)C(=O)N[C@@H](Cc1cnc[nH]1)C(=O)O` [CVKGGKKYKRQGKGHRMRRYRNNH], the MIC in assay [2] was not below 170 µM; against Vibrio litoralis H1 it was 11 µM (≈ 32.5 µg/mL); in [3], not below 85 µM; in assay [4], 6 µM (≈ 17.8 µg/mL); in the assay on Vibrio scophthalmi ZS1, not below 340 µM; in [5], 3 µM (≈ 8.88 µg/mL).

For the molecule `CC[C@H](C)[C@H](NC(=O)[C@H](C)NC(=O)[C@H](CCCCN)NC(=O)[C@H](C)NC(=O)CNC(=O)[C@H](CCCN=C(N)N)NC(=O)[C@H](CC(C)C)NC(=O)[C@H](CC(C)C)NC(=O)[C@H](CO)NC(=O)[C@H](CCCN=C(N)N)NC(=O)[C@H](CC(C)C)NC(=O)[C@@H](N)Cc1ccccc1)C(=O)N[C@@H](Cc1ccc(O)cc1)C(=O)N[C@@H](CCCN=C(N)N)C(=O)NCC(=O)N[C@@H](C)C(=O)N[C@@H](CCCN=C(N)N)C(=O)N[C@@H](C)C(=O)NCC(=O)N[C@@H](Cc1c[nH]c2ccccc12)C(=O)N[C@@H](CCCN=C(N)N)C(=O)NCC(N)=O` [FLRSLLRGAKAIYRGARAGWRG], the MIC in the assay on Candida glabrata was not below 60.6 µM; in the assay on Candida tropicalis it was 2.67 µM (≈ 6.62 µg/mL); against Acinetobacter baumannii it was 7.27 µM (≈ 18 µg/mL); in the assay on Staphylococcus aureus, 1.89 µM (≈ 4.68 µg/mL); in assay [6], 1.89 µM (≈ 4.68 µg/mL); in the assay with Candida albicans, 2.67 µM (≈ 6.62 µg/mL). Further, in assay [7], the MIC worked out at 15.1 µM (≈ 37.5 µg/mL).

Regarding `CC(C)C[C@H](NC(=O)[C@H](CC(N)=O)NC(=O)[C@H](CCCN=C(N)N)NC(=O)[C@@H](CC(C)C)NC(=O)[C@H](Cc1ccccc1)NC(=O)[C@H](CC(=O)O)NC(=O)[C@H](CCCCN)NC(=O)[C@@H](CC(C)C)NC(=O)[C@H](CCCN=C(N)N)NC(=O)[C@H](CCC(N)=O)NC(=O)[C@@H](NC(=O)[C@@H](CC(C)C)NC(=O)[C@H](CCCN=C(N)N)NC(=O)[C@H](CCCCN)NC(=O)[C@H](Cc1ccccc1)NC(=O)CN)C(C)C)C(=O)N[C@H](C(N)=O)C(C)C` [GFKRLVQRLKDFLRNLV], the MIC in assay [8] was 25 µM (≈ 52.5 µg/mL); in assay [9], 100 µM (≈ 210 µg/mL); in [10] it was not below 100 µM; in [11], 8.8 µM (≈ 18.5 µg/mL); in assay [12], not below 100 µM; in [13], not below 100 µM.

With `CC[C@H](C)[C@@H]1NC(=O)CNC(=O)[C@H](CCCN=C(N)N)NC(=O)[C@H](Cc2ccc(O)cc2)NC(=O)[C@@H](NC(=O)[C@@H](NC(=O)[C@H](CCCN=C(N)N)NC(=O)[C@H](Cc2ccccc2)NC(=O)[C@H](CO)NC(=O)[C@H](Cc2c[nH]c3ccccc23)NC(=O)[C@@H](N)CCCCN)C(C)C)CSSC[C@@H](C(=O)N[C@@H](Cc2ccc(O)cc2)C(=O)N[C@@H](CCCN=C(N)N)C(=O)N[C@@H](CCCN=C(N)N)C(=O)N[C@@H](C)C(=O)N[C@@H](CCCN=C(N)N)C(=O)O)NC1=O` [KWSFRVCYRGICYRRAR], the MIC was found to be 1.8 µM (≈ 4 µg/mL) in assay [14]; 1.8 µM (≈ 4 µg/mL) in the assay on Pseudomonas aeruginosa; 0.45 µM (≈ 0.999 µg/mL) in assay [15]; 0.113 µM (≈ 0.25 µg/mL) in the assay on Acinetobacter baumannii; 7.21 µM (≈ 16 µg/mL) against Klebsiella pneumoniae; 0.45 µM (≈ 0.999 µg/mL) in [16]. For the same molecule, the MIC stood at 0.45 µM (≈ 0.999 µg/mL) in assay [13]; 1.8 µM (≈ 4 µg/mL) in [17]; 0.0563 µM (≈ 0.125 µg/mL) in assay [18]; 0.113 µM (≈ 0.25 µg/mL) in assay [19]; 0.113 µM (≈ 0.25 µg/mL) in assay [20]; 0.113 µM (≈ 0.25 µg/mL) in assay [21]. In assay [22], the MIC worked out at 0.901 µM (≈ 2 µg/mL).

With `CC(C)C[C@H](NC(=O)[C@H](CCCN=C(N)N)NC(=O)[C@H](Cc1ccccc1)NC(=O)[C@H](Cc1ccccc1)NC(=O)[C@@H](NC(=O)[C@H](CO)NC(=O)[C@@H](N)CC(C)C)[C@@H](C)O)C(=O)N[C@@H](Cc1ccccc1)C(=O)N[C@@H](CC(N)=O)C(=O)N[C@@H](CCCN=C(N)N)C(=O)N[C@@H](CO)C(=O)N[C@@H](Cc1ccccc1)C(=O)N[C@H](C(=O)N[C@@H](CCC(N)=O)C(=O)NCC(=O)N[C@@H](CCCN=C(N)N)C(=O)N[C@@H](CCCN=C(N)N)C(=O)N[C@@H](CCCN=C(N)N)C(=O)N[C@@H](CCCN=C(N)N)C(=O)N[C@@H](CO)C(=O)N[C@H](C(=O)N[C@@H](CCC(N)=O)C(=O)N[C@@H](Cc1c[nH]c2ccccc12)C(=O)N[C@@H](CS)C(=O)N[C@@H](C)C(=O)O)C(C)C)[C@@H](C)O` [LSTFFRLFNRSFTQGRRRRSVQWCA], the MIC in assay [23] was 16 µM (≈ 49.8 µg/mL); in assay [24], 3.42 µM (≈ 10.7 µg/mL); in assay [25], 4.27 µM (≈ 13.3 µg/mL); in [26], 31.9 µM (≈ 99.6 µg/mL).

As to `CC[C@H](C)[C@H](NC(=O)[C@H](CCCCN)NC(=O)[C@H](Cc1cnc[nH]1)NC(=O)[C@H](CC(C)C)NC(=O)[C@H](CC(C)C)NC(=O)[C@H](Cc1ccccc1)NC(=O)[C@H](CC(N)=O)NC(=O)[C@@H](N)C(C)C)C(=O)N[C@@H](Cc1ccc(O)cc1)C(=O)NCC(=O)N[C@@H](CC(N)=O)C(=O)N[C@H](C(=O)N[C@@H](CCCN=C(N)N)C(=O)N[C@@H](CC(=O)O)C(=O)N[C@@H](CO)C(=O)O)[C@@H](C)CC` [VNFLLHKIYGNIRDS], the MIC against Vibrio fluvialis was not below 34.9 µM; with Vibrio parahaemolyticus it was 18 µM (≈ 32.2 µg/mL); with Streptococcus pyogenes, not below 34.9 µM; in the assay with Aeromonas hydrophila it was 2.18 µM (≈ 3.9 µg/mL); in the assay on Staphylococcus aureus it was 34.9 µM (≈ 62.5 µg/mL); against Vibrio alginolyticus it was 2.18 µM (≈ 3.9 µg/mL). In addition, the MIC against Escherichia coli came to 2.18 µM (≈ 3.9 µg/mL).

Broadly, the MIC is the lowest concentration that inhibits growth of the organism. A low value points to greater potency.
